Data set [1] relates to human monocytes/macrophages. In words: MTS staining for macrophage viability (cytotoxicity). Format: cell-based. Here is the method:
Anti-HIV efficacy evaluation in human monocyte/macrophages. Following 6 to 14 days in culture, the monocyte/macrophages cultures were washed 3 times to remove any non-adherent cells, and serially diluted test compounds were added followed by the addition of a pre-titered amount of HIV. Cultures were washed a final time by media removal 24 h post infection, fresh compound added and the cultures continued for an additional six days. Assays were performed using a standardized microtiter plate format developed by the Infectious Disease Research Department of Southern Research Institute. […] At assay termination, virus replication was measured by collecting cell-free supernatant samples, which were analyzed for HIV p24 antigen content using a commercially available p24 ELISA assay (Coulter). Following removal of supernatant samples, compound cytotoxicity was measured by addition of MTS to the plates for determination of cell viability. […]
MTS staining for macrophage viability to measure cytotoxicity. At assay termination, the assay plates were stained with the soluble tetrazolium-based dye MTS (CellTiter Reagent, Promega) to determine cell viability and quantify compound cytotoxicity. MTS is metabolized by the mitochondrial enzymes of metabolically active cells to yield a soluble formazan product, allowing the rapid quantitative analysis of cell viability and compound cytotoxicity. […]

The subject of another data set is HepG2-2.2.15 cells. In words: Dye uptake cell viability in HepG2-2.2.15 cells. The data set is classed as cell-based. Conditions: at the concentrations evaluated. On the procedure:
HepG2 2.2.15 Antiviral Assay. The assay developed is similar to that described ion the literature (Korba et al., 1991, Antiviral Res. 15: 217-228; Korba et al., 1992, Antiviral Res. 19: 55-70) with the exception that viral DNA detection and quantification have been improved and simplified (Buckwold et al., 2004, Antiviral Res. 61(1): 57-62). Briefly, HepG2-2.2.15 cells are plated in 96-well microtiter plates. Only the interior wells are utilized to reduce “edge effects” observed during cell culture; the exterior wells are filled with complete medium to help minimize sample evaporation. After 16-24 hours the confluent monolayer of HepG2-2.2.15 cells is washed and the medium is replaced with complete medium containing various concentrations of a test compound in triplicate. […] Six days following the initial administration of the test compound, the cell culture supernatant is collected, treated with pronase and DNAse and then used in a real-time quantitative TaqMan PCR assay. The PCR-amplified HBV DNA is detected in real-time by monitoring increases in fluorescence signals that result from the exonucleolytic degradation of a quenched fluorescent probe molecule that hybridizes to the amplified HBV DNA. […] Antiviral activity is calculated from the reduction in HBV DNA levels (IC50). […] The therapeutic index (TI) is calculated as TC50/IC50.

Values after ≈ are worked out from the molar mass of the structure shown. Like-named read-outs stand apart in the source and are kept apart here.

As to `CC(=O)OC12CC(C)C3(O)C(C=C(COC(=O)CCC(=O)O)CC4(O)C(=O)C(C)=CC43)C1C2(C)C` (stereo not shown) [SA-101B, Prostratin Succinate], in data set [1] (40% Human AB serum), the TC50 was found to be 21.0 µg/mL. For the same compound, the Cytotoxicity entry in the data set with HepG2-2.2.15 cells was “no cytotoxicity”.
In data set [1], `CC(=O)O[C@@]12C[C@@H](C)[C@@]3(O)[C@@H](C=C(CO)C[C@]4(O)C(=O)C(C)=C[C@@H]34)[C@@H]1C2(C)C` [SA-101A, 12-deoxyphorbol 13-acetate] yielded a TC50 of 17.3 µg/mL (≈ 44.3 µM). In addition, in the data set on HepG2-2.2.15 cells, the Cytotoxicity entry was “no cytotoxicity”.
